The record followed here is PubChem BioAssay AID1259407 (Chemical Carcinogenesis Research Information System (CCRIS), 2018).

This series deals with CCRIS mutagenicity, Ames/micronucleus/aberration tests. The experiment in a line: CCRIS mutagenicity studies. Conditions: Test System: AMES SALMONELLA TYPHIMURIUM
Setting [1] is: Strain/Indicator: TA98, Metabolic Activation: NONE, Method: STANDARD PLATE.
[2] abbreviates: Strain/Indicator: TA98, Metabolic Activation: S-9, Method: STANDARD PLATE.
[3] abbreviates: Strain/Indicator: TA100, Metabolic Activation: NONE, Method: STANDARD PLATE.
Setting [4] is: Strain/Indicator: TA100, Metabolic Activation: S-9, Method: STANDARD PLATE.
Where [5] appears, read: Strain/Indicator: TA1535, Metabolic Activation: NONE, Method: STANDARD PLATE.
Setting [6] is: Strain/Indicator: TA1535, Metabolic Activation: S-9, Method: STANDARD PLATE.
The mark [7] stands for this setting: Strain/Indicator: TA1537, Metabolic Activation: NONE, Method: STANDARD PLATE.
Where [8] appears, read: Strain/Indicator: TA1537, Metabolic Activation: S-9, Method: STANDARD PLATE.

Active and inactive are the calls of the source. The rule behind the calls is not given here.

In the case of `CCC(CCOCn1cc[n+](C)c1/C=N/O)[N+](=O)[O-]` (stereo unspecified), the mutagenic call is, setting by setting: (Strain/Indicator: TA97, Metabolic Activation: NONE, Method: STANDARD PLATE) “inactive; negative”; (Strain/Indicator: TA97, Metabolic Activation: S-9, Method: STANDARD PLATE) “inactive; negative”; under setting [1], “inactive; negative”; under setting [2], “inactive; negative”; under setting [3], “inactive; negative”; under setting [4], “inactive; negative”. The mutagenic call (Strain/Indicator: TA104, Metabolic Activation: NONE, Method: STANDARD PLATE) was “inactive; negative”; the mutagenic call (Strain/Indicator: TA104, Metabolic Activation: S-9, Method: STANDARD PLATE) is “inactive; negative”; the mutagenic call under setting [5] was “inactive; negative”; the mutagenic call under setting [6] was “inactive; negative”; the mutagenic call under setting [7] was “inactive; negative”; the mutagenic call under setting [8] was “inactive; negative”. Further, the mutagenic call is “inactive; negative” (Strain/Indicator: TA1538, Metabolic Activation: NONE, Method: STANDARD PLATE) and “inactive; negative” (Strain/Indicator: TA1538, Metabolic Activation: S-9, Method: STANDARD PLATE).

Consider `CN1CCN(C2=Nc3cc(Cl)ccc3Nc3ccccc32)CC1`, for which the mutagenic call was “inactive; negative” under setting [1]; “inactive; negative” (Strain/Indicator: TA98, Metabolic Activation: RAT, LIVER, S-9, AROCLOR 1254, Method: STANDARD PLATE); “inactive; negative” under setting [3]; “inactive; negative” (Strain/Indicator: TA100, Metabolic Activation: RAT, LIVER, S-9, AROCLOR 1254, Method: STANDARD PLATE); “inactive; negative” under setting [5]; “inactive; negative” (Strain/Indicator: TA1535, Metabolic Activation: RAT, LIVER, S-9, AROCLOR 1254, Method: STANDARD PLATE). The mutagenic call under setting [7] is “inactive; negative” and the mutagenic call (Strain/Indicator: TA1537, Metabolic Activation: RAT, LIVER, S-9, AROCLOR 1254, Method: STANDARD PLATE) is “inactive; negative”.

Turning to `Nc1snc2cc(Cl)ccc12`, the mutagenic call is “inactive; negative” under setting [1]; “inactive; negative” under setting [2]; “inactive; negative” under setting [3]; “active; positive” under setting [4]; “inactive; negative” under setting [5]; “inactive; negative” under setting [6]. The mutagenic call was “inactive; negative” under setting [7] and “active; positive” under setting [8].

Regarding `COC(=O)/C(C#N)=C/c1ccc([N+](=O)[O-])o1`, the mutagenic call (Strain/Indicator: TA98, Metabolic Activation: NONE, Method: PREINCUBATION) was “active; positive”.
